Data taken from the supplement of paper PMC12463676, “Small-molecule dissolution of stress granules by redox modulation benefits ALS models” (Nature Chemical Biology, 2025).

compound: O=[As]([O-])(O)O.[K+] [potassium arsenate]; assay: thermal stability z-score vs DMSO; higher = more thermally stabilized by treatment; conditions: HeLa; arsenate concentration 1 mM
Method: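 Cellular thermal proteome profiling in HeLa cells treated with 1 mM arsenate for 1 h (DMSO pretreatment), heated to ten temperatures (37-66.3 °C). Soluble protein was quantified by TMT mass spectrometry relative to DMSO controls; the thermal stability score was transformed to a z-score; mean of n = 3 experiments.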
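Also: each temperature applied for 3 min, abundance score taken as mean log2 fold change at the two lowest temperatures, z-score obtained by mean subtraction and division by SD.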

UniProt Q8N0X4, sequence (Q8N0X4 whole entry): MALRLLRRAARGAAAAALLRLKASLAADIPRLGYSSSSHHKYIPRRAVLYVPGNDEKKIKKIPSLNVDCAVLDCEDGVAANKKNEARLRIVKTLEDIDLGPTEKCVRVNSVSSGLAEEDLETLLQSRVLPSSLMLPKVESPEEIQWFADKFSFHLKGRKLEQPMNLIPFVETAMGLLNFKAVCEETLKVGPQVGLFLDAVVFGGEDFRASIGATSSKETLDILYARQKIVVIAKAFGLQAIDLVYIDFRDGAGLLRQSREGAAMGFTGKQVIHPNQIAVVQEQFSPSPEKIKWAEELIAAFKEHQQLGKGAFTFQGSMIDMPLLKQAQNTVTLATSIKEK
UniProt Q8NFH8, sequence (Q8NFH8 whole entry): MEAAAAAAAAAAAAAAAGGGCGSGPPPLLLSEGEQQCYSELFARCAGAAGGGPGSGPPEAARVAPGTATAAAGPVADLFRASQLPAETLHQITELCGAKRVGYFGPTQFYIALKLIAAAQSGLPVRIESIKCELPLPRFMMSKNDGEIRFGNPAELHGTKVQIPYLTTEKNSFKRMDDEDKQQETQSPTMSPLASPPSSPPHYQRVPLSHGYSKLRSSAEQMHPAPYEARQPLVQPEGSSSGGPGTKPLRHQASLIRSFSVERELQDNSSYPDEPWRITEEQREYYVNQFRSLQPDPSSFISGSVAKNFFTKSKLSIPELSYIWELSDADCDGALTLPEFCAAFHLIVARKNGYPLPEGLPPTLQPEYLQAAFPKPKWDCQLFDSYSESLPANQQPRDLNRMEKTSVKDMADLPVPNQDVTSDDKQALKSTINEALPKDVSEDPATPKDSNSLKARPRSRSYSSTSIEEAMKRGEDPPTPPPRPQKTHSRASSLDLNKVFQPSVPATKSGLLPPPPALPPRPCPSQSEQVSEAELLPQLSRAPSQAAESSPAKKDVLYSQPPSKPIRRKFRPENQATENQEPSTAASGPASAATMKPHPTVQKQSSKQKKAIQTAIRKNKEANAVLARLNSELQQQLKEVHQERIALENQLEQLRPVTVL
UniProt Q9Y446, sequence (Q9Y446 whole entry): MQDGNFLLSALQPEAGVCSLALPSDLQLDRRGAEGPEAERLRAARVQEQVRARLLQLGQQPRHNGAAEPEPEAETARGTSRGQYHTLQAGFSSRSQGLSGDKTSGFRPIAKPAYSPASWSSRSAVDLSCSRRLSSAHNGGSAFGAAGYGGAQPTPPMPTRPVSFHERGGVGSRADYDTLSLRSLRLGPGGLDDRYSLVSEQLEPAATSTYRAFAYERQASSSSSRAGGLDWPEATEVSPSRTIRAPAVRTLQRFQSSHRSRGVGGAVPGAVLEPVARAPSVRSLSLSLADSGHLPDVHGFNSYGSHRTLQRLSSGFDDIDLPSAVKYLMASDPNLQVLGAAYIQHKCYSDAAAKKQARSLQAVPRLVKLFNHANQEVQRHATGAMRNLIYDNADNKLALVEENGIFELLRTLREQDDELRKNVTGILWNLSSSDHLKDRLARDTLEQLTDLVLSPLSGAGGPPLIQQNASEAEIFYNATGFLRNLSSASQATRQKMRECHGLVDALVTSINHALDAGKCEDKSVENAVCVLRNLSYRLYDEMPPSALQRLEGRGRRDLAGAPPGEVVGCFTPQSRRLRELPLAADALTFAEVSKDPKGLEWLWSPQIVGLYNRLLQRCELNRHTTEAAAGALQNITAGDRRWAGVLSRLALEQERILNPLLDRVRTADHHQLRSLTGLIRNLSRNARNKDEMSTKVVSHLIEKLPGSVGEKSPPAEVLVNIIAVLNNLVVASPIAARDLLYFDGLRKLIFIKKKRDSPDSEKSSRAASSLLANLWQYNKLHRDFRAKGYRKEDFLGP
UniProt Q9NVX2, sequence (Q9NVX2 whole entry): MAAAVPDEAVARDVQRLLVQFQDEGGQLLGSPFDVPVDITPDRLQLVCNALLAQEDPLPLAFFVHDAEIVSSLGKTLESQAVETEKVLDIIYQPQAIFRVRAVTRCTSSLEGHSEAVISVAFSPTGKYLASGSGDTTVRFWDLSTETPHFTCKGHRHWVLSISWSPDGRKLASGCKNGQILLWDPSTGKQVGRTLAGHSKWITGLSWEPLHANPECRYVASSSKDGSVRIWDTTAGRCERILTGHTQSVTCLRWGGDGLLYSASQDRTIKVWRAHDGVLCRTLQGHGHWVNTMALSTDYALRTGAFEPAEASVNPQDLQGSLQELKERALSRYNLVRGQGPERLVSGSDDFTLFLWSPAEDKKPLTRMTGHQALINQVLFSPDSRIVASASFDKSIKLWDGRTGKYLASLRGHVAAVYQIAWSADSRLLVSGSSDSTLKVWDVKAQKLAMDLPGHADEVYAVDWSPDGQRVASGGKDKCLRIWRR
UniProt P15408, sequence (P15408 whole entry): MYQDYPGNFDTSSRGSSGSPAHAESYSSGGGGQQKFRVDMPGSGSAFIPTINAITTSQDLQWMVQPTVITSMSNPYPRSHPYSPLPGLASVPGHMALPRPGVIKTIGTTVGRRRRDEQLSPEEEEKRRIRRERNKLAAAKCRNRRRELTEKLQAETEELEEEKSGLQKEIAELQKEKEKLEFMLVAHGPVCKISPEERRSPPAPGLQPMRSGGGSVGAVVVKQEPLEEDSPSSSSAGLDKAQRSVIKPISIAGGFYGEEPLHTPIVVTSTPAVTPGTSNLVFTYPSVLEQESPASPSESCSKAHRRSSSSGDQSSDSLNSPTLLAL
UniProt Q86W50, sequence (Q86W50 whole entry): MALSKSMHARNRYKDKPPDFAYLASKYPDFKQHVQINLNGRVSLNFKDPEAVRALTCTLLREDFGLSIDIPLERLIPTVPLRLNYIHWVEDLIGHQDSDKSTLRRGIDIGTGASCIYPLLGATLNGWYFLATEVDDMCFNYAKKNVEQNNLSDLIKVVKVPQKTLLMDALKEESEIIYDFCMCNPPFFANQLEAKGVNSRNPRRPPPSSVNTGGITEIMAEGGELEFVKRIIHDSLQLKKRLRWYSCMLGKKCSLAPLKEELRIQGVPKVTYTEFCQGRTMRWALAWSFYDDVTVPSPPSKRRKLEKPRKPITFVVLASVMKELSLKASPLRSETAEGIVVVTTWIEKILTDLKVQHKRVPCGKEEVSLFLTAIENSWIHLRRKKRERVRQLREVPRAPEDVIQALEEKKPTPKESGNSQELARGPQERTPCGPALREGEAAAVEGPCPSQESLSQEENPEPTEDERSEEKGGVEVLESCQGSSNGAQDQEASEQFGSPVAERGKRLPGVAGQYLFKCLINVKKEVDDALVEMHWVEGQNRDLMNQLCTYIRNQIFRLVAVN
UniProt Q9BRT9, sequence (Q9BRT9 whole entry): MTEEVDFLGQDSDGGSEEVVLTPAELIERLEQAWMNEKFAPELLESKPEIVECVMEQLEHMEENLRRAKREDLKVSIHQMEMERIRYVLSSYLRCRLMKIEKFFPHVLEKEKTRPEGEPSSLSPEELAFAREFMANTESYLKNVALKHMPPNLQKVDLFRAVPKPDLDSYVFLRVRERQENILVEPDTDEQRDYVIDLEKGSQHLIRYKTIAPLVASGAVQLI
UniProt Q96GA7, sequence (Q96GA7 whole entry): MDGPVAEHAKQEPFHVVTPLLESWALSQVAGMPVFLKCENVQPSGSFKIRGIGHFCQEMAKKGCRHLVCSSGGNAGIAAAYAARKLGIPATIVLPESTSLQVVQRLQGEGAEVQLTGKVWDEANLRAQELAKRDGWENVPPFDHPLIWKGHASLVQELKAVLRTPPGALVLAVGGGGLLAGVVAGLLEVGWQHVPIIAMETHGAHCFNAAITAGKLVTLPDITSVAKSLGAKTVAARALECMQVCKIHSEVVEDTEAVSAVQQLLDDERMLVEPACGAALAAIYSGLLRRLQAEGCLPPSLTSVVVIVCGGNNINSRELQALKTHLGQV
UniProt Q12982, sequence (Q12982 whole entry): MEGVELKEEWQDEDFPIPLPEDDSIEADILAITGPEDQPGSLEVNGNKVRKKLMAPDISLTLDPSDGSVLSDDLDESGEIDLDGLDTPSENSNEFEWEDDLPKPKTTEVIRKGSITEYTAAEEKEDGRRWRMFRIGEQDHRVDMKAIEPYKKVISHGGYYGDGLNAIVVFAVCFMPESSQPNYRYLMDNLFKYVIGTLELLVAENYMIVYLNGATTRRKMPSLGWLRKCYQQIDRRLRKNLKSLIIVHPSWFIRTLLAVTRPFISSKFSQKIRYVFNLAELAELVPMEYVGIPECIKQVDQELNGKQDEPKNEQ
UniProt Q8TDX7, sequence (Q8TDX7 whole entry, looked up): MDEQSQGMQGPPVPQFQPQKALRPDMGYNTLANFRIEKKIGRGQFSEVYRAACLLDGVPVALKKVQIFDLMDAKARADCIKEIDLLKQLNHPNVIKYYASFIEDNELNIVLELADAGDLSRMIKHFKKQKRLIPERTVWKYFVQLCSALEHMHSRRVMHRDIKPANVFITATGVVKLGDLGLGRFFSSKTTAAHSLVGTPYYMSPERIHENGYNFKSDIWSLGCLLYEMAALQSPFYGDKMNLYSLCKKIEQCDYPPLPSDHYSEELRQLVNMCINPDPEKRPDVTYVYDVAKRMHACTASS
UniProt P00568, sequence (P00568 whole entry): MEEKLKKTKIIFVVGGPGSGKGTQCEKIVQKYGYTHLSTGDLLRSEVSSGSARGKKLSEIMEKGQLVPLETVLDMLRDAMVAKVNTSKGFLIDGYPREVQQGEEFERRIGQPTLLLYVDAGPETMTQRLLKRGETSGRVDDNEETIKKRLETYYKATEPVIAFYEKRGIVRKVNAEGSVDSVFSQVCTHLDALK
UniProt Q9BQ90, sequence (Q9BQ90 whole entry): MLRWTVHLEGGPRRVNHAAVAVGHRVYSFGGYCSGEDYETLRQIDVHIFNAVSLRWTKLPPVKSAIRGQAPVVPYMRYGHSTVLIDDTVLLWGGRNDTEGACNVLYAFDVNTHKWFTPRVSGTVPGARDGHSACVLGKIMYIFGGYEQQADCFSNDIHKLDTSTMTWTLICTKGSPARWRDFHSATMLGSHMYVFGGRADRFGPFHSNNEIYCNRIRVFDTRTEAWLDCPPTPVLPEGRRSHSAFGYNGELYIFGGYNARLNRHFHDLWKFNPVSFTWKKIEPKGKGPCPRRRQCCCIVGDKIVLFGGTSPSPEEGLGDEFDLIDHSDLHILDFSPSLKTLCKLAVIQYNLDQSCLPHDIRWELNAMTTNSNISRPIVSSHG

Target	thermal stability z-score
AGO1 (UniProt Q9UL18)	-0.337
SCRIB	0.128
CTPS2 (UniProt Q9NRF8)	0.109
TBC1D13 (UniProt Q9NVG8)	-0.494
CLYBL (UniProt Q8N0X4)	0.695
AK1 (UniProt P00568)	-0.267
PDE8B (UniProt O95263)	0.228
WASF2 (UniProt Q9Y6W5)	-0.206
RIC8A (UniProt Q9NPQ8)	0.476
FOSL2 (UniProt P15408)	-2.25
NLE1 (UniProt Q9NVX2)	-2.71
KLHDC3 (UniProt Q9BQ90)	1.05
GINS4 (UniProt Q9BRT9)	-0.614
SRFBP1 (UniProt Q8NEF9)	0.756
RTF1 (UniProt Q92541)	-0.323
A0A087WV05|MYCBP	0.26
BAZ1A (UniProt Q9NRL2)	-0.236
SREK1 (UniProt Q8WXA9)	0.00931
SEPHS1 (UniProt P49903)	0.00514
BNIP2 (UniProt Q12982)	0.641
METTL16 (UniProt Q86W50)	-0.0708
FLJ13984|METTL8	0.187
TBC1D2B (UniProt Q9UPU7)	-0.23
RACK1 (UniProt P63244)	-0.92

Target	thermal stability z-score
SSFA2 (UniProt P28290)	-0.392
NEK7 (UniProt Q8TDX7)	-0.53
SDSL (UniProt Q96GA7)	-0.745
XPNPEP3 (UniProt Q9NQH7)	-0.646
ESD (UniProt P10768)	0.445
ENTHD2 (UniProt Q96N21)	-0.479
BIN1 (UniProt O00499)	0.183
REPS2 (UniProt Q8NFH8)	-0.0535
AP4B1 (UniProt Q9Y6B7)	-0.137
PKP3 (UniProt Q9Y446)	0.191
TRAF7 (UniProt Q6Q0C0)	-1.01
A0A0C4DFX4|SRCAP	-0.111
WDYHV1 (UniProt Q96HA8)	-0.625
PPT1 (UniProt P50897)	-0.00594
ABCC5 (UniProt O15440)	-0.077
NOSIP (UniProt Q9Y314)	2.36
EDC3 (UniProt Q96F86)	-0.555
OASL (UniProt Q15646)	-0.307
UPF2 (UniProt Q9HAU5)	0.0278
NCAPD3 (UniProt P42695)	0.161
TCEA1 (UniProt P23193)	-0.117
SELK (UniProt Q9Y6D0)	0.22
ALG3 (UniProt Q92685)	0.141
SNRPF (UniProt P62306)	0.116

Target	thermal stability z-score
NACA	0.508
CUL4A (UniProt Q13619)	-0.0896
SEL1L (UniProt Q9UBV2)	0.614
DFNA5 (UniProt O60443)	0.523
GDE1 (UniProt Q9NZC3)	-1.38
UBE2E3 (UniProt Q969T4)	1.92
SEC24D (UniProt O94855)	-0.578
TRIP13 (UniProt Q15645)	-0.184
RPS21 (UniProt P63220)	-0.196
RALGAPA1 (UniProt Q6GYQ0)	-2.14
C2ORF47 (UniProt Q8WWC4)	1.09
VARS (UniProt P26640)	0.373
RDH11 (UniProt Q8TC12)	0.385
POLDIP2 (UniProt Q9Y2S7)	0.18
C16ORF62 (UniProt Q7Z3J2)	0.119
YRDC (UniProt Q86U90)	0.341
IL18 (UniProt Q14116)	-0.226
COG5 (UniProt Q9UP83)	0.793
CETN3 (UniProt O15182)	1.71
TAP1 (UniProt Q03518)	1.47
EDC4 (UniProt Q6P2E9)	-0.454
DDX21 (UniProt Q9NR30)	-1.35
RUFY1 (UniProt Q96T51)	0.39
TRMT2A (UniProt Q8IZ69)	-0.216

compound: NC(=O)CCCCC1CCSS1 [lipoamide]; assay: as above; conditions: HeLa; lipoamide concentration 100 µM; arsenate co-treatment: 1 mM arsenate 1 h
Method: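 Cellular thermal proteome profiling in HeLa cells. Cells were treated with 100 µM lipoamide for 1 h, with or without 1 mM arsenate for a further 1 h, then heated to ten temperatures (37-66.3 °C), and soluble protein was quantified by TMT mass spectrometry relative to 0.1% DMSO controls. The thermal stability score (sum of log2 fold changes minus the abundance score) was transformed to a z-score; mean of n = 3 experiments.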

Target	thermal stability z-score
AGO1 (UniProt Q9UL18)	-0.0919
SCRIB	-0.00971
CTPS2 (UniProt Q9NRF8)	0.218
TBC1D13 (UniProt Q9NVG8)	0.33
CLYBL (UniProt Q8N0X4)	0.208
AK1 (UniProt P00568)	-0.242
PDE8B (UniProt O95263)	-0.563
WASF2 (UniProt Q9Y6W5)	-0.14
RIC8A (UniProt Q9NPQ8)	-0.305
FOSL2 (UniProt P15408)	1.86
NLE1 (UniProt Q9NVX2)	0.481
KLHDC3 (UniProt Q9BQ90)	0.45
GINS4 (UniProt Q9BRT9)	0.2
SRFBP1 (UniProt Q8NEF9)	-0.0373
RTF1 (UniProt Q92541)	0.13
A0A087WV05|MYCBP	1.93
BAZ1A (UniProt Q9NRL2)	-0.258
SREK1 (UniProt Q8WXA9)	0.0164

Target	thermal stability z-score
SEPHS1 (UniProt P49903)	0.189
BNIP2 (UniProt Q12982)	1.13
METTL16 (UniProt Q86W50)	-0.248
FLJ13984|METTL8	-0.0305
TBC1D2B (UniProt Q9UPU7)	-0.169
RACK1 (UniProt P63244)	0.56
SSFA2 (UniProt P28290)	-0.0444
NEK7 (UniProt Q8TDX7)	-0.813
SDSL (UniProt Q96GA7)	0.0811
XPNPEP3 (UniProt Q9NQH7)	-0.37
ESD (UniProt P10768)	-0.53
ENTHD2 (UniProt Q96N21)	-0.00439
BIN1 (UniProt O00499)	-0.407
REPS2 (UniProt Q8NFH8)	0.13
AP4B1 (UniProt Q9Y6B7)	0.0905
PKP3 (UniProt Q9Y446)	-0.116
TRAF7 (UniProt Q6Q0C0)	0.0114
A0A0C4DFX4|SRCAP	0.121
